Among the data in US20240425496A1, “AZETIDINYL PYRIMIDINES AND USES THEREOF” (Aerie Pharmaceuticals, Inc., priority 2021, published 2024) are IC50 values, retold here.

Test [1] deals with TYK2 (Homo sapiens (Human), UniProt P29597). Nature of the test: JAK kinase assay (KINASE-GLO luminescent), TYK2 enzyme. In kind it is biochemical. The note with it: TYK2 enzyme 10 nM, Abl peptide substrate. Here is the method:
(§1) All compounds were initially prepared as 10 mM stocks in anhydrous dimethylsulfoxide (DMSO). […] Test compounds were then serially diluted 1:5 in DMSO for an 11-point concentration response and further diluted in the assay buffer bringing all compound concentrations to a final range of 100 μM to 10 μM in 2.5% DMSO. […] The reaction was initiated by the addition of 10 μL of 4× stock solution ATP (2 μM). Reactions were thoroughly mixed manually, covered, and allowed to incubate at room temperature for 75 min. Protein kinase activity was quantitated using Promega's KINASE-GLO™ luminescent Kinase Assay Kit according to the manufacturer's directions. ATP concentrations remaining in Test wells following the termination of the enzymatic reaction were compared against control wells containing equivalent amounts of DMSO containing no inhibitor (CTRL). […] Percent of Control (POC) values were determined for each concentration of compound tested according to the equation: […]
(§2) IC50 values were calculated using the following 4-parameter logistic curve-fitting algorithm:
(§3) Compounds were prepared in the exact same manner as described in the ROCK Kinase Assay with the exception to the substrate and enzyme. […] All other steps and solutions remain identical to the ROCK Kinase Assay above.
(In Kinase-Glo more light means more ATP remaining.)

Test [2] has as its target JAK1 (Homo sapiens (Human), UniProt P23458). Nature of the test: JAK kinase assay (KINASE-GLO luminescent), JAK1 enzyme. In kind it is biochemical. To be noted: JAK1 enzyme 10 nM, Abl peptide substrate. As to the method: as §1, §2, §3

Chain of JAK1 (P23458 whole entry, species assumed): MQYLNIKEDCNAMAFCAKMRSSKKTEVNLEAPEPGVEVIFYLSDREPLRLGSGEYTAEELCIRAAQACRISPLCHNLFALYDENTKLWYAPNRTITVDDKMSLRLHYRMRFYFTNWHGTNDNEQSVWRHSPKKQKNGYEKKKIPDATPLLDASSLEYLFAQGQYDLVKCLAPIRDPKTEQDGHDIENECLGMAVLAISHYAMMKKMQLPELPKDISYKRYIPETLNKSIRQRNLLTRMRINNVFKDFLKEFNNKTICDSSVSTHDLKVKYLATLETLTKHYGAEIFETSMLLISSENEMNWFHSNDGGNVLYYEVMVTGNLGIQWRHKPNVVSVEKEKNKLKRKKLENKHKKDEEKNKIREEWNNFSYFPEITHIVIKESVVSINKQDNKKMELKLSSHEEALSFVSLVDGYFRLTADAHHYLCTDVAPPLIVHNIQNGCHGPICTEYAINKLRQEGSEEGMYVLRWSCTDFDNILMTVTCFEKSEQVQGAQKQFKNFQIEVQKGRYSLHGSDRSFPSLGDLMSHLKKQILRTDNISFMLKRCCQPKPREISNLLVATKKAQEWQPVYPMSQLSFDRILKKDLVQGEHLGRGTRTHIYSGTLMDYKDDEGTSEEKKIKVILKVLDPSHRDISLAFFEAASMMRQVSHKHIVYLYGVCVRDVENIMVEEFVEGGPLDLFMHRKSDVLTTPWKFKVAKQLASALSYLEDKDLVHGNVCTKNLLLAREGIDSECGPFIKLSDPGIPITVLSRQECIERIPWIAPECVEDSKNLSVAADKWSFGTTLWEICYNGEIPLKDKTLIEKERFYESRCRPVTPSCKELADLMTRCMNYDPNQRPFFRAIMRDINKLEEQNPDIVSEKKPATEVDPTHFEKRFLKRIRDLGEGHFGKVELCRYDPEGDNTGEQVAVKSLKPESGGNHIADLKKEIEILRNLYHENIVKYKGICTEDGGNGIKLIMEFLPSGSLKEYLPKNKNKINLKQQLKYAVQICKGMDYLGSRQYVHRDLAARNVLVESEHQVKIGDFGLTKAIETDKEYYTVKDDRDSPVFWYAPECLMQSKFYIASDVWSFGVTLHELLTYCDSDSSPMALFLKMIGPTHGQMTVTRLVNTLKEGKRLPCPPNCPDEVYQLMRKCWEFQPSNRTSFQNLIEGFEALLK
Chain of TYK2 (P29597 whole entry, species assumed): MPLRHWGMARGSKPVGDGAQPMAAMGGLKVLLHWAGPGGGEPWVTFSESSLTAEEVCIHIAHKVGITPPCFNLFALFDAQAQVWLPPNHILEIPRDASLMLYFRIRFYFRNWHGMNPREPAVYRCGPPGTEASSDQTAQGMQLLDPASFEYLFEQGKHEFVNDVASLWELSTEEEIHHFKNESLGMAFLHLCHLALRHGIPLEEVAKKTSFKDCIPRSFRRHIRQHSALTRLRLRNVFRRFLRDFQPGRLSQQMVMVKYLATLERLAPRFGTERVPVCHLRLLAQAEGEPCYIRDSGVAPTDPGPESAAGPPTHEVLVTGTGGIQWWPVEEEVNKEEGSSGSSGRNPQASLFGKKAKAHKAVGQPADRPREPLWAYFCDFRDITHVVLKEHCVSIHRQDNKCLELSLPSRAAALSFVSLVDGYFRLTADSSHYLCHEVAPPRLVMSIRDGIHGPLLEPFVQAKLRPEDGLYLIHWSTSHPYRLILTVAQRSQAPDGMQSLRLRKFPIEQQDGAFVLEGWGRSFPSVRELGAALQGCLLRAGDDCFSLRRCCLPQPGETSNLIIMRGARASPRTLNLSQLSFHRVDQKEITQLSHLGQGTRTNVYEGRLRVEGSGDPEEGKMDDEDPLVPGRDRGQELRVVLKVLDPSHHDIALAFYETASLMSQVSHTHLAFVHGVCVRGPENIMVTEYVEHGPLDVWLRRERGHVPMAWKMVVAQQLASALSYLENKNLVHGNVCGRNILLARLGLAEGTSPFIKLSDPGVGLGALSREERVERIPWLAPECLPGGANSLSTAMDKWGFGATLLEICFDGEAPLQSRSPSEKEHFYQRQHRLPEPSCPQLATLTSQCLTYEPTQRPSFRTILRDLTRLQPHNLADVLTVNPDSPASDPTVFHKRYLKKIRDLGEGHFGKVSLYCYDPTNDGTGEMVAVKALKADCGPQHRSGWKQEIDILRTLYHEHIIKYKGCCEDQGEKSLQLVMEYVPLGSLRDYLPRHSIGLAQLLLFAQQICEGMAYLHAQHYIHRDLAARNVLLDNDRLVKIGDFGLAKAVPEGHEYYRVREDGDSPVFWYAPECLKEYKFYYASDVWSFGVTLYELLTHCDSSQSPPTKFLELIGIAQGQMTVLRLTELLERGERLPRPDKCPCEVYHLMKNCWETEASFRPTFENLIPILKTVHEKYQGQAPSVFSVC

With `Cc1cnc(Nc2ccc3c(c2)CN(C)C3)nc1N1CC(CC#N)(N2CCCC3(C2)CC3(F)F)C1` (centres unmarked) [E111, 2-(3-(1,1-difluoro-5-azaspiro[2.5]octan-5-yl)-1-(5-methyl-2-((2-methylisoindolin-5-yl)amino)pyrimidin-4-yl)azetidin-3-yl)acetonitrile], the IC50 in test [1] and in test [2] was less than 10 nM each time.

As to `Cc1cc(Nc2ncc(C)c(N3CC(CC#N)(N4CCN5CC(C)(C)C[C@H]5C4)C3)n2)sn1` [E111a], the IC50 in test [1] and in test [2] was less than 10 nM in each case.

Take `Cc1cc(Nc2ncc(C)c(N3CC(CC#N)(N4CC5(C4)CC(F)(F)CO5)C3)n2)sn1` [E112a]: the IC50 in test [1] and in test [2] was less than 50 nM throughout.

In the case of `Cc1cnc(Nc2ccc3c(c2)CN(C)C3)nc1N1CC(CC#N)(N2CCC3(CC2)CC3(F)F)C1` [E113], the IC50 in test [1] and in test [2] was less than 10 nM each time.

Turning to `Cc1cc(Nc2ncc(C)c(N3CC(CCCl)(N4CCCCC4)C3)n2)sn1` [E113a], the IC50 in test [1] and in test [2] was less than 10 nM each time.

Take `Cc1cnc(Nc2ccc3c(c2)CN(C)C3)nc1N1CC(CC#N)(N2CCC3(CC2)CC3)C1` [E114]: the half-maximal inhibitory concentration (IC50) in test [1] and in test [2] was less than 20 nM in each case.

In the case of `Cc1cc(Nc2ncc(C)c(N3CC(O)(CC#N)C3)n2)sn1` [E114a], the 50% inhibitory concentration (IC50) in test [1] was less than 10 nM; in test [2], less than 20 nM.

Regarding `Cc1cnc(Nc2ccc(N3CCN(C)CC3)c(C(F)(F)F)c2)nc1N1CC2(C1)CC2(F)F` [E115], the figures for the IC50 in test [1] and in test [2] were less than 100 nM and less than 250 nM, respectively.

As for `Cc1cc(Nc2ncc(C)c(N3CC(CC#N)(N4CCCN5CCCC5C4)C3)n2)sn1` (centres unmarked) [E115a], the concentration for half-maximal inhibition (IC50) was less than 50 nM in test [1] and less than 200 nM in test [2].

`Cc1cnc(Nc2cccc(CN(C)C)c2)nc1N1CC(CC#N)(N2CCCC3(C2)CC3(F)F)C1` (centres unmarked) [E116]: the IC50 in test [1] and in test [2] was less than 10 nM in each case.

For `Cc1cc(Nc2ncc(C)c(N3CC(CCF)(N4CCCCC4)C3)n2)sn1` [E116a], the IC50 in test [1] was less than 10 nM; in test [2] it was less than 50 nM.

On to `Cc1cc(Nc2ncc(C)c(N3CC(N)(CC#N)C3)n2)sn1` [E117-AA], for which the IC50 in test [1] was less than 50 nM; in test [2] it was less than 100 nM.

On to `Cc1cc(Nc2ncc(C)c(N3C4CC3CN(CCC#N)C4)n2)sn1` [E117-AD], for which the IC50 in test [1] and in test [2] was less than 1000 nM throughout.

With `Cc1cc(Nc2ncc(C)c(N3CC(CCF)(N4CCN5C[C@H](F)C[C@H]5C4)C3)n2)sn1` [E117-A], the IC50 in test [1] was less than 10 nM; in test [2], less than 50 nM.

For `Cc1cc(Nc2ncc(C)c(N3CC(CC#N)(N4CC5NCCOC5C4)C3)n2)sn1` (centres unmarked) [E117-B], the IC50 in test [1] is less than 100 nM; in test [2], less than 50 nM.

Turning to `Cc1cc(Nc2ncc(C)c(N3CC(CC#N)(N4CCC(F)(F)CC4)C3)n2)sn1` [E117-E], the IC50 in test [1] and in test [2] was less than 5 nM in each case.

For `Cc1cc(Nc2ncc(C)c(N3CC(CC#N)(N4CCN5CC6(CC6)C[C@H]5C4)C3)n2)sn1` [E117-G], the half-inhibitory concentration (IC50) in test [1] and in test [2] was less than 5 nM each time.

In the case of `Cc1cc(Nc2ncc(C)c(N3CC(CC#N)(N4CCN(CCCF)CC4)C3)n2)sn1` [E117-J], the 50% inhibitory concentration (IC50) in test [1] and in test [2] was less than 5 nM in each case.

As for `C#CC1(O)CN(c2nc(Nc3cc(C)ns3)ncc2C)C1` [E117-N], the IC50 in test [1] was less than 5 nM; in test [2], less than 10 nM.

Turning to `Cc1cc(Nc2ncc(C)c(N3CC4(C3)CC4(F)F)n2)sn1` [E117-P], the IC50 in test [1] was less than 5 nM; in test [2] it was less than 10 nM.

On to `Cc1cc(Nc2ncc(C)c(N3CC(CC#N)(N4CCN(C)C(CCF)C4)C3)n2)sn1` (centres unmarked) [E117-R], for which the results for the concentration for half-maximal inhibition (IC50) in test [1] and in test [2] were less than 5 nM and less than 10 nM, respectively.

`Cc1cnc(Nc2cc(CN(C)C)ns2)nc1N1CC(CC#N)(N2CCN3CCCC[C@H]3C2)C1` [E117-S]: the values for the IC50 in test [1] and in test [2] were less than 10 nM and less than 25 nM, respectively.

Turning to `Cc1cc(Nc2ncc(C)c(N3CC(CCC#N)C3)n2)sn1` [E117-T], the figures for the IC50 in test [1] and in test [2] were less than 10 nM and less than 25 nM, respectively.

Take `Cc1cc(Nc2ncc(C)c(N3CC(CC(F)F)C3)n2)sn1` [E117-U]: the concentration for half-maximal inhibition (IC50) in test [1] was less than 10 nM; in test [2] it was less than 25 nM.

Consider `Cc1cc(Nc2ncc(C)c(N3C4CC3CN(CC#N)C4)n2)sn1` [E117-V], for which the 50% inhibitory concentration (IC50) in test [1] and in test [2] was less than 50 nM in each case.

Take `Cc1cc(Nc2ncc(C)c(N3CC(=CC#N)C3)n2)sn1` [E117-X]: the 50% inhibitory concentration (IC50) in test [1] and in test [2] was less than 75 nM in each case.

For `Cc1cc(Nc2ncc(C)c(N3CC(CC#N)(CN4CCN5C[C@H](F)C[C@H]5C4)C3)n2)sn1` [E117-Y], the values for the IC50 in test [1] and in test [2] were less than 50 nM and less than 100 nM, respectively.

In the case of `Cc1cnc(Nc2cccnc2)nc1N1CC(CC#N)(N2CCN(C)CC2)C1` [E117], the concentration for half-maximal inhibition (IC50) in test [1] was less than 20 nM; in test [2] it was less than 50 nM.

Take `Cc1cc(Nc2ncc(C)c(N3CC(CC#N)(N4CCN5C[C@H](C)C[C@H]5C4)C3)n2)sn1` [E117a]: the half-inhibitory concentration (IC50) is less than 10 nM in test [1] and less than 50 nM in test [2].

`Cc1cnc(Nc2ccc(N3CCOCC3)cc2)nc1N1CC(CC#N)(N2CCN(C)CC2)C1` [E118]: the half-inhibitory concentration (IC50) in test [1] was less than 10 nM; in test [2] it was less than 50 nM.

For `Cc1cnc(Nc2ccc3c(c2)CN(C)C3)nc1N1CC(CC#N)(N2CCC(F)(F)CC2)C1` [E119-A], the IC50 in test [1] and in test [2] was less than 10 nM each time.

As to `Cc1cnc(Nc2ccc(N3CCOCC3)c(F)c2)nc1N1CC(CC#N)(N2CCCCC2)C1` [E119], the 50% inhibitory concentration (IC50) is less than 10 nM in test [1] and less than 25 nM in test [2].

As for `Cc1cnc(Nc2cnn(C)c2)nc1N1CC(CC#N)(N2CCN3C[C@H](F)C[C@H]3C2)C1` [E152a, 2-(3-((7R,8aS)-7-fluorohexahydropyrrolo[1,2-a]pyrazin-2(1H)-yl)-1-(5-methyl-2-((1-methyl-1H-pyrazol-4-yl)amino)pyrimidin-4-yl)azetidin-3-yl)acetonitrile], the concentration for half-maximal inhibition (IC50) in test [1] and in test [2] was less than 10 nM throughout.

As to `[2H]C([2H])([2H])n1cc(Nc2ncc(C)c(N3CC(CC#N)(N4CCN5C[C@H](F)C[C@H]5C4)C3)n2)cn1` [E156a], the IC50 in test [1] and in test [2] was less than 10 nM each time.

On to `Cc1cnc(Nc2cnn(C)c2)nc1N1CC(CC#N)(N2CCN3CC(F)(F)C[C@H]3C2)C1` [E157a], for which the 50% inhibitory concentration (IC50) in test [1] and in test [2] was less than 10 nM each time.

In the case of `Cc1cnc(Nc2cnn(C)c2)nc1N1CC(CC#N)(N2CCN3CCCC[C@@H]3C2)C1` [E159a], the IC50 is less than 100 nM in test [1] and less than 120 nM in test [2].

For the compound `Cc1cnc(Nc2cnn(C)c2)nc1N1CC(CC#N)(N2CCC3C(CC2)C3(F)F)C1` (centres unmarked) [E160a], the IC50 in test [1] and in test [2] was less than 10 nM each time.

Regarding `Cc1cnc(Nc2cnn(C)c2)nc1N1CC(CC#N)(N2CC3(C2)CC3(F)F)C1` [E161a], the IC50 in test [1] and in test [2] was less than 20 nM each time.

As for `Cc1cnc(Nc2cnn(C)c2)nc1N1CC(CC#N)(N2CCN3CCC[C@H]3C2)C1` [E162a], the IC50 in test [1] and in test [2] was less than 50 nM throughout.

For `Cn1cc(Nc2ncc(Cl)c(N3CC(CC#N)(N4CCN5C[C@H](F)C[C@H]5C4)C3)n2)cn1` [E163a], the IC50 in test [1] and in test [2] was less than 10 nM throughout.

As for `Cc1cnc(Nc2cnn(C)c2)nc1N1CC(CC#N)(N2CCn3cccc3C2)C1` [E164a], the IC50 in test [1] and in test [2] was less than 10 nM each time.

Consider `Cc1cnc(Nc2cnn(C)c2)nc1N1CC(CC(F)F)(C2CC2)C1` [E165a], for which the IC50 in test [1] and in test [2] was less than 10 nM throughout.

With `COC(=O)CC1(N2CCN3C[C@H](F)C[C@H]3C2)CN(c2nc(Nc3cnn(C)c3)ncc2C)C1` [E166a], the concentration for half-maximal inhibition (IC50) in test [1] is less than 200 nM; in test [2], less than 1000 nM.

Turning to `Cc1cnc(Nc2cnn(C)c2)nc1N1CC(CCO)(N2CCN3C[C@H](F)C[C@H]3C2)C1` [E167a], the half-maximal inhibitory concentration (IC50) in test [1] and in test [2] was less than 50 nM throughout.

Regarding `Cc1cnc(Nc2cnn(C)c2)nc1N1CC(CCC#N)(N2CCN3C[C@H](F)C[C@H]3C2)C1` [E168a], the half-inhibitory concentration (IC50) in test [1] and in test [2] was less than 20 nM throughout.

As for `Cc1cnc(Nc2cnn(C)c2)nc1N1CC(N2CCN3C[C@H](F)C[C@H]3C2)C1` [E169a], the half-inhibitory concentration (IC50) was less than 120 nM in test [1] and less than 250 nM in test [2].

As for `CCC1(N2CCN3C[C@H](F)C[C@H]3C2)CN(c2nc(Nc3cnn(C)c3)ncc2C)C1` [E170a], the IC50 in test [1] is less than 100 nM; in test [2], less than 50 nM.

As for `Cc1cnc(Nc2cnn(C)c2)nc1N1CC(CC#N)(N2CCN3CCCC[C@H]3C2)C1` [E171a], the IC50 in test [1] and in test [2] was less than 10 nM each time.

As to `Cc1cnc(Nc2cnn(C)c2)nc1N1CC(CC#N)(N2CC3(C2)CC(F)(F)CO3)C1` [E172a], the 50% inhibitory concentration (IC50) in test [1] and in test [2] was less than 100 nM each time.

On to `Cc1cnc(Nc2cnn(C)c2)nc1N1CC(CC#N)(N2CCN3CC(C)(C)C[C@H]3C2)C1` [E173a], for which the half-maximal inhibitory concentration (IC50) in test [1] and in test [2] was less than 10 nM in each case.

As to `Cc1cnc(Nc2cnn(C)c2)nc1N1CC(=CC#N)C1` [E174a], the half-inhibitory concentration (IC50) in test [1] is less than 200 nM; in test [2] it was less than 100 nM.

Take `Cc1cnc(Nc2cnn(C)c2)nc1N1CC(O)(CF)C1` [E175-A]: the half-inhibitory concentration (IC50) in test [1] was less than 120 nM; in test [2] it was less than 100 nM.

What is called IC50 is the midpoint of a concentration-inhibition curve.
